In brackets after ≈: the same amount, converted by molar mass. Blank lines part the entries; values can stand above or below the compound they belong to. Numbered stars: 1 amine (or outer) side, 2 acyl side, 3 side chain; on linkers, the order of the positions; unused ones are H or OH. Square brackets hold non-standard residues; d marks the D form. Peptide text beside a SMILES is read from it. * marks the point of attachment. ξ: configuration not given here. X1 = N=C1NCC(C(O)C(N[*:1])C(=O)[*:2])N1C1OC(CO)C(O)C(O)C1O; ξEnduracididine(βξ-OH,4'ξ) = N=C1NCC(C(O)C(N)C(=O)O)N1; X2 = OCC1OC(OC2C(CO)OC(*)C(O)C2O)C(O)C(O)C1O; X5 = N=C1NCC(C(O)[C@@H](N[*:1])C(=O)[*:2])N1; X4 = N=C1NCC(C(O)[C@H](N[*:1])C(=O)[*:2])N1; Diphenylacetyl = O=C(C(c1ccccc1)c1ccccc1)*; ξPhe(βξ-Me) = CC(c1ccccc1)C(N)C(=O)O; Cha = N[C@@H](CC1CCCCC1)C(=O)O; dCha = N[C@H](CC1CCCCC1)C(=O)O
Experiments:
Test in all cases: In vitro antibacterial evaluation: minimum inhibitory concentration (MIC), broth dilution method
Assay type in all cases: cell-based
[1] = system: Enterococcus sp.
Description: (§1) The minimum inhibitory concentration (MIC), the lowest concentration of the antibiotic which inhibits growth of the test organism, is determined by the broth dilution method using Muller-Hinton II […] (Baltimore Biological Laboratories) following the recommendations of the National Committee for Clinical Laboratory Standards [Methods for dilution antimicrobial susceptibility tests for bacteria that grow aerobically, approved standard M7-A2, National Committee for Clinical Laboratory Standards, Villanova, Pa].
(§2) An inoculum level of 5×10^5 CFU/mL, and a range of antibiotic concentrations (64-0.06 μg/mL) is used. […] The test organisms include a spectrum of Gram-positive bacteria comprised of Staphylococcus sp., Streptococcus sp. and Enterococcus sp. These organisms include recent clinical isolates that are resistant to methicillin, penicillin and/or vancomycin.

[2] = system: Staphylococcus sp.; conditions: for MIC Coagulase Negative Staphylococcus (ID-3941): strain ID-3941
Description: as §1, §2

[3] = system: Streptococcus sp.
Description: as §1, §2

[4] = strain GC 4549, broth dilution, 18 hours at 35° C.
[5] = broth dilution, 18 hours at 35° C.
[6] = broth dilution, inoculum 5×10^5 CFU/mL, 18 hours at 35° C.

SMILES: Cc1cccc(Oc2ccc(-c3nc4cc(C[C@@H]5NC(=O)[C@H](C(C)c6ccccc6)NC(=O)CNC(=O)[C@H](CO)NC(=O)[C@H](C(O)C6CNC(=N)N6)NC(=O)[C@H](C(O)C6CNC(=N)N6)NC5=O)ccc4o3)cc2)c1 (stereo partly drawn) [Example 41, Cyclo[3-[2-[4-(3-methylphenoxy)phenyl]benzoxazol-5-yl]alanyl-3-(2-iminoimidazolidin-4-yl)-seryl-3-(2-iminoimidazolidin-4-yl)serylserylglycyl-β-methylphenylalanyl]]
- MIC Enterococcus faecalis (GC 6189) ([1]; Enterococcus faecalis (GC 6189), broth dilution, 18 hours at 35° C.): >64 mg/L
- MIC Staphylococcus haemolyticus (GC 4546) ([2]; strain GC 4546, broth dilution, 18 hours at 35° C.): 64 mg/L (≈ 63 µM)
- MIC Coagulase Negative Staphylococcus (GC 4547) ([2]; strain GC 4547, broth dilution, 18 hours at 35° C.): 64 mg/L (≈ 63 µM)
- MIC Coagulase Negative Staphylococcus (GC 4548) ([2]; strain GC 4548, broth dilution, 18 hours at 35° C.): >64 mg/L
- MIC Coagulase Negative Staphylococcus (GC 4549) [2, 4]: 32 mg/L (≈ 31.5 µM)
- MIC Coagulase Negative Staphylococcus (GC 4551) ([2]; strain GC 4551, broth dilution, 18 hours at 35° C.): 64 mg/L (≈ 63 µM)

SMILES: N=C1NCC(C(O)[C@@H]2NC(=O)[C@@H](CC3CCCCC3)NC(=O)[C@H](CC3CCCCC3)NC(=O)CNC(=O)[C@H](CO)NC(=O)[C@@H](C(O)C3CNC(=N)N3)NC2=O)N1 (some centres unmarked) [Example 58, Cyclo[3-cyclohexylalanyl-3-cyclohexylalanyl-3-(2-iminoimidazolidin-4-yl)seryl-3-(2-iminoimidazolidin-4-yl)-serylserylglycyl]] (cyclo([Cha][dCha][X4][X5]SG))
- MIC Coagulase Negative Staphylococcus (GC 4547) [2, 5]: 4 mg/L (≈ 5.06 µM)
- MIC Coagulase Negative Staphylococcus (GC 4548) [2, 5]: 4 mg/L (≈ 5.06 µM)
- MIC Coagulase Negative Staphylococcus (GC 4549) [2, 5]: 4 mg/L (≈ 5.06 µM)
- MIC Coagulase Negative Staphylococcus (GC 4551) [2, 5]: 8 mg/L (≈ 10.1 µM)
- MIC Staphylococcus haemolyticus (GC 4546) [2, 5]: 4 mg/L (≈ 5.06 µM)
- MIC Staphylococcus aureus (ATCC 29213) ([2]; strain ATCC 29213, broth dilution, 18 hours at 35° C.): 16 mg/L (≈ 20.2 µM)
- MIC Staphylococcus aureus (GC 4542) ([2]; strain GC 4542, broth dilution, 18 hours at 35° C.): 16 mg/L (≈ 20.2 µM)
- MIC Staphylococcus aureus (GC 4544) ([2]; strain GC 4544, broth dilution, 18 hours at 35° C.): 16 mg/L (≈ 20.2 µM)

The remaining lines, values ahead:

- MIC Streptococcus agalactiae (GC 4564) ([3]; Streptococcus agalactiae (GC 4564), broth dilution, 18 hours at 35° C.): 64 mg/L (≈ 49 µM)
- MIC Streptococcus pneumoniae (ATCC 6301) ([3]; Streptococcus pneumoniae (ATCC 6301), broth dilution, 18 hours at 35° C.): 64 mg/L (≈ 49 µM)
- MIC Streptococcus pneumoniae (GC 1894) ([3]; Streptococcus pneumoniae (GC 1894), broth dilution, 18 hours at 35° C.): 32 mg/L (≈ 24.5 µM)
- MIC Streptococcus pneumoniae (GC 4565) ([3]; Streptococcus pneumoniae (GC 4565), broth dilution, 18 hours at 35° C.): 64 mg/L (≈ 49 µM)
- MIC Streptococcus pyogenes (GC 4563) ([3]; Streptococcus pyogenes (GC 4563), broth dilution, 18 hours at 35° C.): 64 mg/L (≈ 49 µM)
- MIC Streptococcus agalactiae (GC 4564) [3, 5]: 64 mg/L (≈ 49 µM)
- MIC Streptococcus pneumoniae (ATCC 6301) [3, 5]: 64 mg/L (≈ 49 µM)
- MIC Streptococcus pneumoniae (GC 1894) [3, 5]: 32 mg/L (≈ 24.5 µM)
- MIC Streptococcus pneumoniae (GC 4565) [3, 5]: 64 mg/L (≈ 49 µM)
- MIC Streptococcus pyogenes (GC 4563) [3, 5]: 64 mg/L (≈ 49 µM)
SMILES: CC(C1CCCCC1)C1NC(=O)CNC(=O)C(CO)NC(=O)C(C(O)C2CNC(=N)N2C2OC(CO)C(O)C(O)C2O)NC(=O)C(C(O)C2CNC(=N)N2)NC(=O)C(CC2CCC(OC3OC(CO)C(OC4OC(CO)C(O)C(O)C4O)C(O)C3O)CC2)NC1=O (centres unmarked) [Example 53a, Cyclo[3-[4-[(4-O-hexopyranosylhexopyranosyl)oxy]cyclohexyl]alanyl-3-(2-iminoimidazolidin-4-yl)seryl-3-(3-hexopyranosyl-2-iminoimidazolidin-4-yl)serylserylglycyl-3-cyclohexyl-2-aminobutanoyl]]

- MIC Enterococcus faecium (GC 4557) ([1]; strain GC 4557): 32 mg/L (≈ 21.5 µM)
- MIC Coagulase Negative Staphylococcus (GC 4549) ([2]; strain GC 4549): 64 mg/L (≈ 43 µM)
- MIC Coagulase Negative Staphylococcus (GC 4549) [2, 4]: 64 mg/L (≈ 43 µM)
- MIC Coagulase Negative Staphylococcus (ID-3941) [2]: 64 mg/L (≈ 43 µM)
- MIC Coagulase Negative Staphylococcus (ID-3941) [2, 5]: 64 mg/L (≈ 43 µM)
- MIC Streptococcus agalactiae (GC 4564) ([3]; strain GC 4564): 32 mg/L (≈ 21.5 µM)
- MIC Streptococcus pneumoniae (GC 4565) ([3]; strain GC 4565): 16 mg/L (≈ 10.7 µM)
- MIC Streptococcus pyogenes (ID-3187) ([3]; strain ID-3187): 32 mg/L (≈ 21.5 µM)
SMILES: CC(c1ccccc1)C1NC(=O)CNC(=O)C(COC(=O)C(c2ccccc2)c2ccccc2)NC(=O)C(C(O)C2CNC(=N)N2C2OC(CO)C(O)C(O)C2O)NC(=O)C(C(O)C2CNC(=N)N2)NC(=O)C(Cc2ccc(OC3OC(CO)C(OC4OC(CO)C(O)C(O)C4O)C(O)C3O)cc2)NC1=O (stereo not drawn) [Example 96a, Cyclo[glycyl-β-methylphenylalanyl-O-[4-O-hexopyranosylhexopyranosyl)tyrosyl-3-(2-iminoimidazolidin-4-yl)seryl-3-(3-hexopyranosyl-2-iminoimidazolidin-4-yl)seryl-O-(diphenylacetyl)-seryl]] (cyclo(G[ξPhe(βξ-Me)]Y(X2)[ξEnduracididine(βξ-OH,4'ξ)][X1]S(Diphenylacetyl)); configuration not given here)

- MIC Coagulase Negative Staphylococcus (GC 6257) ([2]; Coagulase Negative Staphylococcus (GC 6257), 18 hours at 35° C.): 12 to 32 mg/L
- MIC Streptococcus agalactiae (GC 4564) ([3]; Streptococcus agalactiae (GC 4564), 18 hours at 35° C.): 1 to 8 mg/L
- MIC Streptococcus pneumoniae (GC 1894) ([3]; Streptococcus pneumoniae (GC 1894), 18 hours at 35° C.): <0.06 to 2 mg/L
- MIC Streptococcus pneumoniae (GC 4565) ([3]; Streptococcus pneumoniae (GC 4565), 18 hours at 35° C.): 0.5 to 8 mg/L
- MIC Streptococcus pyogenes (GC 4563) ([3]; Streptococcus pyogenes (GC 4563), 18 hours at 35° C.): 1 to 8 mg/L
- MIC Streptococcus agalactiae (GC 4564) [3, 6]: 1 to 8 mg/L
- MIC Streptococcus pneumoniae (GC 1894) [3, 6]: <0.06 to 2 mg/L
- MIC Streptococcus pneumoniae (GC 4565) [3, 6]: 0.5 to 8 mg/L
- MIC Streptococcus pyogenes (GC 4563) [3, 6]: 1 to 8 mg/L
SMILES: CC(c1ccccc1)C1NC(=O)CNC(=O)C(CO)NC(=O)C(C(O)C2CNC(=N)N2C2OC(CO)C(O)C(O)C2O)NC(=O)C(C(O)C2CNC(=N)N2)NC(=O)C(Cc2ccc(OC3OC(CO)C(OC4OC(CO)C(O)C(O)C4OCc4ccc(OCc5ccccc5)cc4)C(O)C3O)cc2)NC1=O (stereo not drawn) [Example 231b, Cyclo[glycyl-β-methylphenylalanyl-O-[4-O-[2-O-[4-(phenylmethoxy)benzyl]hexopyranosyl]-hexopyranosyl]tyrosyl-3-(2-iminoimidazolidin-4-yl)seryl-3-(3-hexopyranosyl-2-iminoimidazolidin-4-yl)serylseryl]]

— US8247211B2, “Glycopeptide antibiotics” (American Cyanamid Company, priority 2001, dated 2012)
